Data published in PMC4491819, “Specificity and catalysis hardwired at the RNA–protein interface in a translational proofreading enzyme” (Nature Communications, 2015).
One block for each molecule: values may come before it.

Key:
PabNTD = biological target: T1, PabNTD (Pyrococcus abyssi, UniProt Q9UZ14, K121M); assay: X-ray crystal structure; assay type: binding; settings: editing (amino-acid/adenosine) pocket
T1 construct: gene thrS; N-terminal editing domain, residues 1-143 of ThrRS, untagged, expressed in E. coli, homodimer; all rows are K121M

ApNTD [1] = biological target: T2, ApNTD (Aeropyrum pernix, UniProt Q9YFY3); assay: ITC (also crystal structure); assay type: binding
T2 construct: gene thrS2; N-terminal editing domain, residues 1-136 of ThrRS-2, untagged, expressed in E. coli, homodimer
T2 sequence (Q9YFY3 1-136): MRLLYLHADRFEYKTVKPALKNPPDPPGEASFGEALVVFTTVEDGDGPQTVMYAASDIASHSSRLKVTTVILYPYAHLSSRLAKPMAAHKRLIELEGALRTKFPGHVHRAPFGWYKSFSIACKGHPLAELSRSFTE

ApNTD [2] = biological target: T3, ApNTD (Aeropyrum pernix, UniProt Q9YFY3, E129A); assay: X-ray crystal structure; assay type: binding; settings: editing (amino-acid/adenosine) pocket
T3 construct: gene thrS2; N-terminal editing domain, residues 1-136 of ThrRS-2, untagged, expressed in E. coli, homodimer

ApNTD [3] = biological target: T4, ApNTD (Aeropyrum pernix, UniProt Q9YFY3, K116M); assay: X-ray crystal structure; assay type: binding; settings: editing (amino-acid/adenosine) pocket
T4 construct: gene thrS2; N-terminal editing domain, residues 1-136 of ThrRS-2, untagged, expressed in E. coli, homodimer

ApNTD [4] = biological target: T5, ApNTD (Aeropyrum pernix, UniProt Q9YFY3, Y115A); assay: X-ray crystal structure; assay type: binding; settings: editing (amino-acid/adenosine) pocket
T5 construct: gene thrS2; N-terminal editing domain, residues 1-136 of ThrRS-2, untagged, expressed in E. coli, homodimer

[5] = biological target: N-terminal editing domain (NTD) of threonyl-tRNA synthetase from Aeropyrum pernix (Aeropyrum pernix); assay: crystal structure; co-crystals with the substrate analogues L-Ser3AA or L-Thr3AA, grown at 4 °C; ApNTD in P4(1)2(1)2 with one monomer in the asymmetric unit (dimer by the crystallographic twofold); MjNTD in C2 and P2(1) with six and four monomers in the asymmetric unit
[6] = biological target: the molecule itself; assay: as above

T1 sequence (Q9UZ14 1-143 K121M): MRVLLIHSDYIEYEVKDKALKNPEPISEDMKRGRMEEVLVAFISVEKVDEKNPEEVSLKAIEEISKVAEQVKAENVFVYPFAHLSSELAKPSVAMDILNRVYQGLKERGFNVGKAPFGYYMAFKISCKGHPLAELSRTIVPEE
T4 sequence (Q9YFY3 1-136 K116M): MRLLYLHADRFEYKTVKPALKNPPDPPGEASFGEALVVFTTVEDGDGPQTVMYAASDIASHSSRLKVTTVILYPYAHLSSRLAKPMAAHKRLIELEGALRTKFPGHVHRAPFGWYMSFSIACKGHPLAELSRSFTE
T3 sequence (Q9YFY3 1-136 E129A): as the sequence (Q9YFY3 1-136 K116M) above, with M116K, E129A counted along it
T5 sequence (Q9YFY3 1-136 Y115A): as the sequence (Q9YFY3 1-136 K116M) above, with Y115A, M116K counted along it

Kd (ApNTD [1]): 1 ± 0.3 µM
Molecule: Nc1ncnc2c1ncn2[C@@H]1O[C@H](CO)[C@@H](NC(=O)[C@@H](N)CO)[C@H]1O [L-seryl-3′-aminoadenosine]
X-ray crystal structure (PabNTD): We solved the crystal structure of K121M mutant of PabNTD

Kd (ApNTD [1]): 13.4 ± 2.9 µM
Molecule: C[C@@H](O)[C@H](N)C(=O)N[C@H]1[C@@H](O)[C@H](n2cnc3c(N)ncnc32)O[C@@H]1CO [L-threonyl-3′-aminoadenosine]
X-ray crystal structure (ApNTD [2]): E129A mutant also showed a loosening of interactions upon L-Thr3AA binding
X-ray crystal structure (PabNTD): We solved the crystal structure of K121M mutant of PabNTD
X-ray crystal structure (ApNTD [3]): K116M mutant of ApNTD with L-Ser3AA and L-Thr3AA
X-ray crystal structure (ApNTD [4]): no such loosening was observed in the case of Y115A

stoichiometry N [5]: 2
Molecule: N-terminal editing domain (NTD) of threonyl-tRNA synthetase from Aeropyrum pernix (domain or fragment)

B1: N-terminal editing domain (NTD) of threonyl-tRNA synthetase from Methanococcus jannaschii (domain or fragment, UniProt Q58597 5-143, looked up)
chain: LIHSDYLEFEAKEKTKIAEETENLKGKLDECLACFIAVEREDENNPEGTAIGAVEEIEKVANQLKVNNIVVYPYAHLSSDLSSPETAVKVLKDIESILKERGYNVLRAPFGWYKAFKISCKGHPLSELSRKIVAKEEKK
notes: N-terminal editing domain of ThrRS of Methanococcus jannaschii, residues 5-143; untagged construct (stop codon in the reverse primer); Crystallised with the substrate analogues L-Ser3AA or L-Thr3AA; also called MjNTD; MjNTD wild type
stoichiometry N [6]: 2
